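Method: 48-hour compound exposure of cells in 96-well plates, five concentrations, linear interpolation of endpoints. Here, GI50 denotes the concentration required for 50% inhibition of growth. TGI: concentration producing complete growth inhibition.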
Assays:
Experiment in all cases: NCI tumour cell line growth inhibition, 48 h
786-0 renal = test system: 786-0 renal
DU-145 prostate = test system: DU-145 prostate
MCF7 breast = test system: MCF7 breast
MDA-MB-435 = test system: MDA-MB-435
MOLT-4 leukemia = test system: MOLT-4 leukemia
RXF 393 renal = test system: RXF 393 renal
SF-539 CNS = test system: SF-539 CNS
SNB-19 CNS = test system: SNB-19 CNS
T-47D breast = test system: T-47D breast
UACC-257 melanoma = test system: UACC-257 melanoma

Compound COc1cc(/C=C/C(=O)c2ccc(Cl)cc2)ccc1OS(=O)(=O)c1ccc(C)cc1 has a GI50 (786-0 renal) of 10.7 µM, a TGI (786-0 renal) of 24.6 µM and a GI50 (DU-145 prostate) of 16.4 µM. The TGI (DU-145 prostate) was 45.2 µM, the GI50 (MCF7 breast) was 2.56 µM and the TGI (MCF7 breast) was 25.6 µM. The GI50 (MDA-MB-435) was 2.74 µM, the TGI (MDA-MB-435) was 8.56 µM and the GI50 (MOLT-4 leukemia) was 2.76 µM. The TGI (MOLT-4 leukemia) was 7.74 µM, the GI50 (RXF 393 renal) was 13.2 µM and the TGI (RXF 393 renal) was 29.5 µM. For the same compound, the GI50 (SF-539 CNS) was 11.2 µM, the TGI (SF-539 CNS) was 24 µM and the GI50 (SNB-19 CNS) was 9.53 µM. For the same compound, the TGI (SNB-19 CNS) was 23.2 µM, the GI50 (T-47D breast) was 9.27 µM and the TGI (T-47D breast) was 28.6 µM. It also gave a GI50 (UACC-257 melanoma) of 14 µM and a TGI (UACC-257 melanoma) of 36.3 µM.

For O=C(Nc1ncc(Cc2ccccc2Cl)s1)c1ccc2c(c1)OCCO2, the GI50 (786-0 renal) was 0.574 µM, the TGI (786-0 renal) was > 100 µM and the GI50 (DU-145 prostate) was 0.384 µM. For the same compound, the TGI (DU-145 prostate) was 17.5 µM, the GI50 (MCF7 breast) was 0.32 µM and the TGI (MCF7 breast) was > 100 µM. It also gave a GI50 (MDA-MB-435) of 0.0399 µM, a TGI (MDA-MB-435) of 0.22 µM and a GI50 (MOLT-4 leukemia) of 0.581 µM. For the same compound, the TGI (MOLT-4 leukemia) was > 100 µM, the GI50 (RXF 393 renal) was 0.255 µM and the TGI (RXF 393 renal) was 1.19 µM. It also gave a GI50 (SF-539 CNS) of 0.258 µM, a TGI (SF-539 CNS) of 0.741 µM and a GI50 (SNB-19 CNS) of 0.548 µM. The TGI (SNB-19 CNS) was > 45.5 µM, the GI50 (T-47D breast) was 0.333 µM and the TGI (T-47D breast) was > 100 µM. For the same compound, the GI50 (UACC-257 melanoma) was 6.27 µM and the TGI (UACC-257 melanoma) was > 82.1 µM.

O=C1c2ccccc2-c2c1c1ccccc1c(=O)n2CCCN1CCOCC1 was tested, and the GI50 (786-0 renal) was 3.94 µM, the TGI (786-0 renal) was 18.5 µM and the GI50 (DU-145 prostate) was 10.1 µM. For the same compound, the TGI (DU-145 prostate) was > 82.6 µM, the GI50 (MCF7 breast) was 9.31 µM and the TGI (MCF7 breast) was > 100 µM. The GI50 (MDA-MB-435) was > 100 µM, the TGI (MDA-MB-435) was > 100 µM and the GI50 (MOLT-4 leukemia) was 8.11 µM. The TGI (MOLT-4 leukemia) was > 100 µM, the GI50 (RXF 393 renal) was 6.21 µM and the TGI (RXF 393 renal) was 24.3 µM. It also gave a GI50 (SF-539 CNS) of 6.65 µM, a TGI (SF-539 CNS) of 19.6 µM and a GI50 (SNB-19 CNS) of 14.2 µM. It also gave a TGI (SNB-19 CNS) of 39.1 µM, a GI50 (T-47D breast) of 19.6 µM and a TGI (T-47D breast) of 97.4 µM. The GI50 (UACC-257 melanoma) was > 100 µM and the TGI (UACC-257 melanoma) was > 100 µM.

In the case of O=C(NC(=S)Nc1ccc(Cl)cc1)c1ccccc1, the GI50 (786-0 renal) was > 87.4 µM, the TGI (786-0 renal) was > 100 µM and the GI50 (DU-145 prostate) was > 72.9 µM. For the same compound, the TGI (DU-145 prostate) was > 100 µM, the GI50 (MCF7 breast) was 2.85 µM and the GI50 (MDA-MB-435) was > 100 µM. For the same compound, the TGI (MDA-MB-435) was > 100 µM, the GI50 (MOLT-4 leukemia) was > 100 µM and the TGI (MOLT-4 leukemia) was > 100 µM. For the same compound, the GI50 (RXF 393 renal) was > 56.2 µM, the TGI (RXF 393 renal) was > 100 µM and the GI50 (SF-539 CNS) was > 90.7 µM. The TGI (SF-539 CNS) was > 100 µM, the GI50 (SNB-19 CNS) was > 79.2 µM and the TGI (SNB-19 CNS) was > 100 µM. For the same compound, the GI50 (T-47D breast) was > 90.3 µM, the TGI (T-47D breast) was > 100 µM and the GI50 (UACC-257 melanoma) was > 100 µM. The TGI (UACC-257 melanoma) was > 100 µM.

With CN(C)c1ccc2c3c(c(=O)oc2c1)CCC3 the TGI (786-0 renal) was > 100 µM, the TGI (DU-145 prostate) was > 100 µM and the TGI (MCF7 breast) was > 100 µM. The TGI (MDA-MB-435) was > 100 µM, the TGI (MOLT-4 leukemia) was > 100 µM and the TGI (RXF 393 renal) was > 100 µM. For the same compound, the TGI (SF-539 CNS) was > 100 µM, the TGI (SNB-19 CNS) was > 100 µM and the TGI (T-47D breast) was > 100 µM. The TGI (UACC-257 melanoma) was > 100 µM.

With C=C1C(=O)O[C@H]2[C@H]1CC/C(Cn1cc(-c3ccccc3)nn1)=C\CC[C@@]1(C)O[C@@H]21 the GI50 (786-0 renal) was 2.63 µM, the TGI (786-0 renal) was 8.79 µM and the GI50 (DU-145 prostate) was 2.19 µM. It also gave a TGI (DU-145 prostate) of 7.92 µM, a GI50 (MCF7 breast) of 1.08 µM and a TGI (MCF7 breast) of 3.32 µM. For the same compound, the GI50 (MDA-MB-435) was 2.37 µM, the TGI (MDA-MB-435) was 9.18 µM and the GI50 (MOLT-4 leukemia) was 1.29 µM. The TGI (MOLT-4 leukemia) was 3.53 µM, the GI50 (RXF 393 renal) was 1.55 µM and the TGI (RXF 393 renal) was 4.22 µM. It also gave a GI50 (SF-539 CNS) of 2.01 µM, a TGI (SF-539 CNS) of 7.18 µM and a GI50 (SNB-19 CNS) of 7.87 µM. For the same compound, the TGI (SNB-19 CNS) was 17 µM, the GI50 (T-47D breast) was 1.3 µM and the TGI (T-47D breast) was 3.94 µM. The GI50 (UACC-257 melanoma) was 3.78 µM and the TGI (UACC-257 melanoma) was 10.5 µM.

Compound CC(=O)OC(C)(C)/C=C/C(=O)[C@](C)(O)[C@H]1[C@H](O)C[C@@]2(C)[C@@H]3CC=C4[C@@H](C[C@H](O)C(=O)C4(C)C)[C@]3(C)C(=O)C[C@]12C has a TGI (786-0 renal) of 14.8 µM, a TGI (DU-145 prostate) of 1.05 µM and a TGI (MCF7 breast) of 7.66 µM. For the same compound, the TGI (MDA-MB-435) was 2.46 µM, the TGI (MOLT-4 leukemia) was 2.78 µM and the TGI (RXF 393 renal) was < 0.0128 µM. For the same compound, the TGI (SF-539 CNS) was < 0.01 µM, the TGI (SNB-19 CNS) was 0.153 µM and the TGI (T-47D breast) was 0.543 µM. It also gave a TGI (UACC-257 melanoma) of 2.42 µM.
